We go through ten molecules from ChEMBL document CHEMBL1201862, “PubChem BioAssay data set” (2004).

The term GI50 denotes the concentration that inhibits growth by half.

Among the test systems are SNB-75; K562; UACC-257; U-251; OVCAR-5; DU-145; SK-MEL-2; MDA-MB-435; NCI-H226; RPMI-8226; SNB-19; PC-3; MOLT-4; OVCAR-3; SF-539; BT-549; EKVX; HOP-62; Hs-578T; SW-620.
Common to all, as to test: DTP human tumour cell line panel, 48 h

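Cells were grown in 96-well plates and exposed to each compound for 48 hours at five concentrations; endpoints were interpolated linearly between bracketing concentrations, or set to the highest concentration if not reached. The concentration for 50% growth inhibition is given as GI50.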 Active and inactive are the calls of the source. Cut-off read from the data, not from the text of the source: active = GI50 up to about 1.1 µM and inactive = higher.

As for `COC(=O)c1cnn2c1ccc1ccccc12`, the GI50 with SNB-75, in the assay on K562, with UACC-257, with U-251, in the assay with OVCAR-5 and in the assay with DU-145 was > 100 µM (inactive) throughout. For the same molecule, the GI50 with SK-MEL-2, in the assay on MDA-MB-435, in the assay on NCI-H226, in the assay on RPMI-8226, with SNB-19 and with PC-3 was > 100 µM (inactive) in each case. Moreover, the GI50 with MOLT-4 was > 100 µM (inactive); in the assay with OVCAR-3 it was > 100 µM (inactive); with SF-539, > 100 µM (inactive); in the assay with BT-549, 45.8 µM (inactive); with EKVX it was 55.3 µM (inactive); in the assay on HOP-62, > 100 µM (inactive). In addition, the GI50 in the assay with Hs-578T and with SW-620 was > 100 µM (inactive) each time.

With `O=C1OC(C2Cc3ccc4c(c3C2=O)CCCC4)c2ccccc21` (centres undefined), the GI50 in the assay with SNB-75 is 65.6 µM (inactive); in the assay on K562, 21.8 µM (inactive); with UACC-257, 52.2 µM (inactive); in the assay on U-251, 39.6 µM (inactive); with OVCAR-5 it was > 100 µM (inactive); in the assay on DU-145, 74.3 µM (inactive). The GI50 in the assay with SK-MEL-2 was 24.5 µM (inactive); in the assay on MDA-MB-435 it was 38.8 µM (inactive); in the assay with NCI-H226 it was 20.6 µM (inactive); in the assay with RPMI-8226 it was 42.5 µM (inactive); in the assay with SNB-19, 44.5 µM (inactive); in the assay on PC-3, 26.4 µM (inactive). In addition, the GI50 in the assay with MOLT-4 is 16.8 µM (inactive); in the assay with OVCAR-3 it was 34.3 µM (inactive); in the assay with SF-539, 24.7 µM (inactive); with BT-549 it was 54.8 µM (inactive); with EKVX, 44.6 µM (inactive); in the assay on HOP-62, 74.1 µM (inactive). In addition, the values for the GI50 in the assay with Hs-578T and in the assay with SW-620 were 18 µM (inactive) and 29.7 µM (inactive), respectively.

As to `COc1cc2c(c(O)c1OC)C(O)C1CCC(=O)N1C2c1cccc2ccccc12` (centres undefined), the GI50 with SNB-75 was 27 µM (inactive); with K562 it was > 100 µM (inactive); with UACC-257, > 100 µM (inactive); with U-251, > 100 µM (inactive); in the assay with OVCAR-5, > 100 µM (inactive); in the assay with DU-145, > 100 µM (inactive). The GI50 with SK-MEL-2 is > 100 µM (inactive); with MDA-MB-435, 51.4 µM (inactive); in the assay on NCI-H226, > 100 µM (inactive); with RPMI-8226 it was > 100 µM (inactive); with SNB-19, > 100 µM (inactive); in the assay on PC-3 it was 49.7 µM (inactive). The GI50 with MOLT-4 was 58.2 µM (inactive); in the assay on OVCAR-3, > 100 µM (inactive); in the assay with SF-539 it was > 100 µM (inactive); in the assay with BT-549 it was > 100 µM (inactive); in the assay with EKVX, 67.8 µM (inactive); in the assay on HOP-62 it was > 100 µM (inactive). The GI50 was 48 µM (inactive) with Hs-578T and > 100 µM (inactive) in the assay with SW-620.

Take `CNC(=O)CC1NC(=O)c2csc(n2)-c2ccc(-c3nc(C4=NC(C(=O)N5CCCC5C(N)=O)CO4)cs3)nc2-c2csc(n2)-c2csc(n2)C(C(C)C)NC(=O)CNC(=O)c2csc(n2)C(C(C)C)NC(=O)c2nc1sc2C` (centres undefined): the GI50 is 0.00203 µM (active) in the assay on SNB-75; 0.00239 µM (active) in the assay with K562; 0.02 µM (active) in the assay on UACC-257; 0.0025 µM (active) in the assay on U-251; 0.0271 µM (active) in the assay on OVCAR-5; 0.0038 µM (active) in the assay with DU-145. In addition, the GI50 is 0.0155 µM (active) in the assay with SK-MEL-2; > 25 µM (inactive) with MDA-MB-435; 0.00391 µM (active) with NCI-H226; > 25 µM (inactive) in the assay on RPMI-8226; 0.043 µM (active) in the assay with SNB-19; 0.00489 µM (active) in the assay with PC-3. The GI50 with MOLT-4 was 0.00728 µM (active); in the assay with OVCAR-3, 0.00979 µM (active); in the assay on SF-539 it was 0.00113 µM (active); with BT-549, 0.0268 µM (active); in the assay on EKVX, 2.38 µM (inactive); in the assay with HOP-62, 0.00826 µM (active). The values for the GI50 in the assay with Hs-578T and in the assay on SW-620 were > 25 µM (inactive) and 0.00962 µM (active), respectively.

In the case of `COc1cc(/C=C/C(=O)CC(=O)/C=C/c2cc(C)c(O)c(OC)c2)cc(C)c1O`, the GI50 in the assay with SNB-75, with K562, in the assay on UACC-257, in the assay with U-251, with OVCAR-5 and in the assay with DU-145 was > 100 µM (inactive) each time. Also, the GI50 in the assay with SK-MEL-2 is > 100 µM (inactive); in the assay with MDA-MB-435 it was > 100 µM (inactive); in the assay with NCI-H226, > 100 µM (inactive); in the assay with RPMI-8226, 37.6 µM (inactive); in the assay with SNB-19, > 100 µM (inactive); in the assay with PC-3 it was > 100 µM (inactive). For the same molecule, the GI50 in the assay with MOLT-4 is > 100 µM (inactive); with OVCAR-3, 83.4 µM (inactive); with SF-539 it was > 100 µM (inactive); in the assay with BT-549, > 100 µM (inactive); in the assay on EKVX it was > 100 µM (inactive); with HOP-62 it was > 100 µM (inactive). For the same molecule, the GI50 with Hs-578T and in the assay with SW-620 was > 100 µM (inactive) each time.

Turning to `COC(=O)c1ccc(/C=N/c2ccc(S(N)(=O)=O)cc2)cc1`, the GI50 in the assay with SNB-75 was 58.9 µM (inactive); in the assay with UACC-257, 14.2 µM (inactive); in the assay with U-251, 67 µM (inactive); in the assay with OVCAR-5, > 100 µM (inactive); in the assay with DU-145 it was > 100 µM (inactive); in the assay with SK-MEL-2, 22 µM (inactive). The GI50 in the assay on MDA-MB-435 is 35.4 µM (inactive); in the assay with NCI-H226 it was > 100 µM (inactive); with RPMI-8226, 30.9 µM (inactive); with SNB-19, > 100 µM (inactive); with PC-3, > 100 µM (inactive); in the assay on MOLT-4, 38.4 µM (inactive). The GI50 was 87.1 µM (inactive) in the assay with OVCAR-3; 38.2 µM (inactive) with SF-539; > 100 µM (inactive) with BT-549; > 100 µM (inactive) in the assay with EKVX; > 100 µM (inactive) in the assay on HOP-62; 38.2 µM (inactive) in the assay on Hs-578T.

As for `COc1ccccc1N1C(=O)CSC1c1cc(OC)c(OC)c(OC)c1` (centres undefined), the GI50 was > 100 µM (inactive) with SNB-75; 24.9 µM (inactive) with K562; > 84.7 µM (inactive) with UACC-257; 31.1 µM (inactive) with U-251; > 100 µM (inactive) with OVCAR-5; > 100 µM (inactive) in the assay on DU-145. The GI50 is 55.7 µM (inactive) with SK-MEL-2; 14.7 µM (inactive) in the assay with MDA-MB-435; > 50 µM (inactive) with NCI-H226; 16.6 µM (inactive) in the assay on RPMI-8226; > 78.2 µM (inactive) in the assay on PC-3; 27.9 µM (inactive) with MOLT-4. Further, the GI50 in the assay on OVCAR-3 is > 46.3 µM (inactive); in the assay with SF-539, 15.8 µM (inactive); in the assay with BT-549 it was > 34 µM (inactive); in the assay with EKVX it was > 100 µM (inactive); in the assay with HOP-62 it was > 100 µM (inactive); in the assay on Hs-578T, > 59.7 µM (inactive). For the same molecule, the GI50 in the assay on SW-620 was 27.5 µM (inactive).

Take `Cc1cn([C@@H]2C[C@@H]2CO)c(=O)[nH]c1=O`: the GI50 with SNB-75, in the assay with K562, in the assay on UACC-257, in the assay on U-251, with OVCAR-5 and with DU-145 was > 100 µM (inactive) in each case. The GI50 in the assay with SK-MEL-2, in the assay on MDA-MB-435, in the assay on NCI-H226, with RPMI-8226, with SNB-19 and with PC-3 was > 100 µM (inactive) in each case. The GI50 with MOLT-4, in the assay on SF-539, with BT-549, in the assay on EKVX, in the assay with HOP-62 and in the assay with Hs-578T was > 100 µM (inactive) in each case. Moreover, in the assay with SW-620, the GI50 is > 100 µM (inactive).

For the molecule `CCOC(=O)C1=CNC2=N[C@H]3CCCC[C@@H]3N2C1=O`, the GI50 in the assay with SNB-75, in the assay with K562, in the assay with UACC-257, in the assay on U-251, in the assay with OVCAR-5 and with DU-145 was > 100 µM (inactive) throughout. In addition, the GI50 in the assay with SK-MEL-2, in the assay with MDA-MB-435, with NCI-H226, with RPMI-8226, in the assay with SNB-19 and in the assay with PC-3 was > 100 µM (inactive) in each case. The GI50 in the assay on MOLT-4, in the assay on OVCAR-3, with SF-539, in the assay with BT-549, in the assay with EKVX and with Hs-578T was > 100 µM (inactive) in each case. Also, in the assay with SW-620, the GI50 is > 100 µM (inactive).

`O=c1cc(-c2ccccc2)[nH]c2ccc(N3CCCC3)cc12`: the GI50 in the assay on SNB-75 was 40.6 µM (inactive); with K562, < 0.01 µM (active); in the assay on UACC-257 it was 30.4 µM (inactive); with U-251, 0.0102 µM (active); with OVCAR-5, 31.6 µM (inactive); in the assay on DU-145, 0.0459 µM (active). The GI50 in the assay on SK-MEL-2 was 0.0484 µM (active); in the assay on MDA-MB-435, < 0.01 µM (active); in the assay on NCI-H226 it was 0.0266 µM (active); in the assay on RPMI-8226 it was 0.0366 µM (active); in the assay with SNB-19, 0.0217 µM (active); with PC-3, 0.0282 µM (active). Also, the GI50 in the assay on MOLT-4 is 0.0794 µM (active); in the assay on OVCAR-3 it was 0.0272 µM (active); in the assay with SF-539, 0.0123 µM (active); with BT-549, > 100 µM (inactive); in the assay on HOP-62, 0.0163 µM (active); in the assay with Hs-578T, < 0.0173 µM (active). Further, the GI50 in the assay on SW-620 was < 0.01 µM (active).
